Results on one molecule are retold here after ChEMBL document CHEMBL1127366, “Structure--activity relationships of sialyl Lewis x-containing oligosaccharides. 1. Effect of modifications of the fucose moiety” (J Med Chem, 1994).

The assay concerns the target T1, E-selectin (Homo sapiens, UniProt P16581).
T1 sequence (P16581 whole entry): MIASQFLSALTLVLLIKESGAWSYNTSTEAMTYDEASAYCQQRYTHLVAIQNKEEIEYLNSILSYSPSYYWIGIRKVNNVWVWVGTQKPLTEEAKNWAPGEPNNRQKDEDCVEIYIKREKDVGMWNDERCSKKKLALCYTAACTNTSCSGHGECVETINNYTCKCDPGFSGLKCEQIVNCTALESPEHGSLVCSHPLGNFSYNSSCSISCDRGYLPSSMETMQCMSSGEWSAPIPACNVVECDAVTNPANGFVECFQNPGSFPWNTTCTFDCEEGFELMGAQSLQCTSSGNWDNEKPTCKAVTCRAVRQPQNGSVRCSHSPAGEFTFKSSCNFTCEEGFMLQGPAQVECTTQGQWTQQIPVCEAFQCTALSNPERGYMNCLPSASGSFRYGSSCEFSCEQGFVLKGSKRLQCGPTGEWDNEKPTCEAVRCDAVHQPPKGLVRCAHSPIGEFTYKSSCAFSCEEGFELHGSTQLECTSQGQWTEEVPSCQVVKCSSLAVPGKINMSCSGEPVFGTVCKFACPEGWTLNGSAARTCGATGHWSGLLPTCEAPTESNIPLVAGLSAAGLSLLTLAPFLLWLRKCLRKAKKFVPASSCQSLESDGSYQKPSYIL
The assay can be described thus: Tested for inhibition of cell adhesion of HL-60 containing SLeX to purified recombinant human E-selectin.

Turning to `CCO[C@@H]1O[C@@H](CO)[C@H](O)[C@H](O[C@@H]2O[C@@H](CO)[C@@H](O[C@@H]3O[C@@H](CO)[C@H](O)[C@H](O[C@]4(C(=O)ON)C[C@@H](O)[C@@H](NC(C)=O)C([C@H](O)[C@H](O)CO)O4)[C@@H]3O)[C@H](O[C@@H]3OC[C@@H](O)[C@H](O)[C@@H]3O)[C@@H]2NC(C)=O)[C@@H]1O` (stereo partly specified), the IC50 (commonly the midpoint of a concentration-inhibition curve) worked out at 5 mM.
